Results: US20110190280A1, “Thiazole And Oxazole Kinase Inhibitors” (priority 2007, published 2011)

Key:
B-Raf = B-Raf (Homo sapiens, UniProt P15056); test: B-Raf Accelerated MEK ATPase assay (BRAMA); type: biochemical; settings: BRAMA enzyme assay; class by pIC50; read-out: B-Raf Activity
Protocol: Compounds of the present invention were tested for B-Raf […] inhibitory activity in a B-Raf Accelerated MEK ATPase assay (BRAMA). The BRAMA assay is a high sensitivity assay which measures an intrinsic MEK-mediated ATP hydrolysis uncoupled from downstream ERK phosphorylation by coupling the formation of ADP to NADH oxidation through the enzymes pyruvate kinase and lactate dehydrogenase. When ADP production is initiated by addition of catalytic amounts of an activated RAF enzyme and non-phosphorylated MEK, one observes robust ADP production concomitant with RAF-mediated phosphorylation of MEK. Specific details of the assay are disclosed in: C. Rominger, M. Schaber, E. May. Assay for B-Raf Activity Based on Intrinsic MEK ATPase Activity.

Colo205 tumor cells = test: Cell growth inhibition assay (CellTiter-Glo), Colo205; settings: Homo sapiens, COLO 205, 72 h, read-out: Activity in Colo205 Tumor Cells;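 also: growth measured via total ATP luminescence (CellTiter-Glo) as a proxy for cell number, inhibition expressed against DMSO-treated control wells, 3-day exposure at 0.2% final DMSO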
SK-MEL-28 tumor cells = test: Cell growth inhibition assay (CellTiter-Glo), SK-MEL-28; settings: Homo sapiens, SK-MEL-28, 72 h, read-out: Activity in SK-MEL-28 Tumor Cells;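 also: luminescent total ATP as a proxy for cell number, threefold serial dilutions at 0.2% DMSO, percent growth inhibition versus DMSO vehicle control wells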

B-Raf, sequence (P15056 whole entry): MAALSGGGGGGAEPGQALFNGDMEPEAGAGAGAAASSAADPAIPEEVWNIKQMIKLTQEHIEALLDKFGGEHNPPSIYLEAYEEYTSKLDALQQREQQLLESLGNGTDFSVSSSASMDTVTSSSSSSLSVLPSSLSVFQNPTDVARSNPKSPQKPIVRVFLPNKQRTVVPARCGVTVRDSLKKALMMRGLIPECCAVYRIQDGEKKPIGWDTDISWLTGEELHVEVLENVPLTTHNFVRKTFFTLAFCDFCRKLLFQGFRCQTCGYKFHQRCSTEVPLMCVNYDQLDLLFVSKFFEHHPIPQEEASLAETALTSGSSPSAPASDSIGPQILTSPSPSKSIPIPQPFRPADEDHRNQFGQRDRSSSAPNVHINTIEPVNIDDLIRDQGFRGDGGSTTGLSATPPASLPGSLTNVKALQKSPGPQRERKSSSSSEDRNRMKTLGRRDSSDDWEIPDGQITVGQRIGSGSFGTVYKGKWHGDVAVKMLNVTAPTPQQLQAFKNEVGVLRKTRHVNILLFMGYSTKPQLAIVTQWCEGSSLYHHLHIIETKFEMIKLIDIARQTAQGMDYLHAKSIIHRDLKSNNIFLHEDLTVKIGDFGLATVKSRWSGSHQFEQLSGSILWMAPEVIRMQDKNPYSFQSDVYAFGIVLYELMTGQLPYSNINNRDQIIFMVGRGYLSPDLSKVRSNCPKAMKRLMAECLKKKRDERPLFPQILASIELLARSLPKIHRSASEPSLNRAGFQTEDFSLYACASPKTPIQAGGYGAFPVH

Structure (SMILES)	IC50 (B-Raf) [nM]	IC50 (Colo205 tumor cells) [nM]	IC50 (SK-MEL-28 tumor cells) [nM]
COc1cc(OC)cc(-c2nc(N(C)C)sc2-c2ccnc(Nc3ccc(OC4CCN(CCS(C)(=O)=O)CC4)c(F)c3)n2)c1 [Example 24, 4-[4-[3,5-bis(methyloxy)phenyl]-2-(dimethylamino)-1,3-thiazol-5-yl]-N-[3-fluoro-4-({1-[2-(methylsulfonyl)ethyl]-4-piperidinyl}oxy)phenyl]-2-pyrimidinamine]	< 100	< 500	500 to 5000
CCNc1nc(-c2cc(C)cc(OC)c2)c(-c2ccnc(Nc3ccc(N4CCOCC4)c(C(=O)O)c3)n2)s1 [Example 26, 5-[(4-{2-(Ethylamino)-4-[3-methyl-5-(methyloxy)phenyl]-1,3-thiazol-5-yl}-2-pyrimidinyl)amino]-2-(4-morpholinyl)benzoic acid]	< 100	< 500	< 500
CCNc1nc(-c2cccc(OC)c2)c(-c2ccnc(Nc3ccc(CCN4CCN(S(C)(=O)=O)CC4)nc3)n2)s1 [Example 40, 4-{2-(Ethylamino)-4-[3-(methyloxy)phenyl]-1,3-thiazol-5-yl}-N-(6-{2-[4-(methylsulfonyl)-1-piperazinyl]ethyl}-3-pyridinyl)-2-pyrimidinamine]	< 100	< 500	500 to 5000
CCNc1nc(-c2cccc(OC)c2F)c(-c2ccnc(Nc3ccc(OC4CCN(CCS(C)(=O)=O)CC4)c(F)c3)n2)s1 [Example 48, 4-{2-(Ethylamino)-4-[2-fluoro-3-(methyloxy)phenyl]-1,3-thiazol-5-yl}-N-[3-fluoro-4-({1-[2-(methylsulfonyl)ethyl]-4-piperidinyl}oxy)phenyl]-2-pyrimidinamine]	< 100	< 500	< 500
CCNc1nc(-c2ccc(C)c(OC)c2)c(-c2ccnc(Nc3ccc(OCCN4CCCC4)c(C#N)c3)n2)s1 [Example 50, 5-[(4-{2-(Ethylamino)-4-[4-methyl-3-(methyloxy)phenyl]-1,3-thiazol-5-yl}-2-pyrimidinyl)amino]-2-{[2-(1-pyrrolidinyl)ethyl]oxy}benzonitrile]	< 100	< 500	500 to 5000
CCNc1nc(-c2cc(OC)cc(OC)c2)c(-c2ccnc(Nc3ccc(N4CCN(C)CC4)c(Cl)c3)n2)o1 [Example 69, 4-[4-[3,5-Bis(methyloxy)phenyl]-2-(ethylamino)-1,3-oxazol-5-yl]-N-[3-chloro-4-(4-methyl-1-piperazinyl)phenyl]-2-pyrimidinamine]	< 100	< 500	500 to 5000
CCNc1nc(-c2cc(C)cc(OC)c2)c(-c2ccnc(Nc3ccc(N4CCN5CCOC[C@H]5C4)nc3)n2)s1 [Example 71, 4-{2-(Ethylamino)-4-[3-methyl-5-(methyloxy)phenyl]-1,3-thiazol-5-yl}-N-{6-[(9aR)-hexahydropyrazino[2,1-c][1,4]oxazin-8(1H)-yl]-3-pyridinyl}-2-pyrimidinamine]	< 100	< 500	< 500
COc1cccc(-c2nc(CF)sc2-c2ccnc(Nc3ccc(OCCN4CCCC4)c(F)c3)n2)c1 [Example 73, 4-{2-(Fluoromethyl)-4-[3-(methyloxy)phenyl]-1,3-thiazol-5-yl}-N-(3-fluoro-4-{[2-(1-pyrrolidinyl)ethyl]oxy}phenyl)-2-pyrimidinamine]	< 100	500 to 5000	500 to 5000
COc1cccc(-c2nc(C(C)C)sc2-c2ccnc(Nc3ccc(NCCN4CCCC4)cc3)n2)c1 [Example 76, N-(4-{2-(1-Methylethyl)-4-[3-(methyloxy)phenyl]-1,3-thiazol-5-yl}-2-pyrimidinyl)-N′-[2-(1-pyrrolidinyl)ethyl]-1,4-benzenediamine]	< 100	500 to 5000	500 to 5000
CCc1nc(-c2cc(C)cc(OC)c2)c(-c2ccnc(Nc3ccc(N4CCN5CCOC[C@H]5C4)nc3)n2)s1 [Example 80]	< 100	> 5000	> 5000
COc1cc(OC)cc(-c2nc(C)oc2-c2ccnc(Nc3ccc(OC4CCN(CCS(C)(=O)=O)CC4)c(F)c3)n2)c1 [Example 83]	100 to 1000	500 to 5000	> 5000
COc1cc(OC)cc(-c2nc(C)oc2-c2ccnc(Nc3ccc(N4CCN(C)CC4)c(F)c3)n2)c1 [Example 84]	< 100	500 to 5000	500 to 5000
COc1cc(OC)cc(-c2nc(N)oc2-c2ccnc(Nc3ccc(N4CCN(C)CC4)c(F)c3)n2)c1 [Example 86]	< 100	500 to 5000	500 to 5000
CCNc1nc(-c2cc(O)ccn2)c(-c2ccnc(Nc3ccc(OCCN4CCCC4)c(Cl)c3)n2)s1 [Example 97]	100 to 1000	> 5000	> 5000
CCNc1nc(-c2cc(C)cc(OC)c2)c(-c2ccnc(Nc3ccc(N4CCOCC4)c(F)c3)n2)o1 [Example 101]	< 100	< 500	500 to 5000
CCNc1nc(-c2ccnc(O)c2)c(-c2ccnc(Nc3ccc(NCCN4CCCC4)c(Cl)c3)n2)s1 [Example 110]	< 100	500 to 5000	500 to 5000
CCNc1nc(-c2ccnc(OC)c2)c(-c2ccnc(Nc3ccc(N4CCN(C)CC4)c(F)c3)n2)s1 [Example 111]	< 100	500 to 5000	> 5000
CCNc1nc(-c2cc(OC)cc(OC)c2)c(-c2ccnc(Nc3ccc(N4CCN(C(=O)OCC)CC4)nc3)n2)o1 [Example 121]	< 100	> 5000	> 5000
CCNc1nc(-c2cc(C)cc(OC)c2)c(-c2ccnc(Nc3ccc(OC4CCN(CCF)CC4)c(C)c3)n2)o1 [Example 126]	< 100	500 to 5000	500 to 5000
CCNc1nc(-c2cc(C)cc(OC)c2)c(-c2ccnc(Nc3ccc(N4CCN5CCCCC5C4)c(F)c3)n2)o1 (stereo not shown) [Example 132]	< 100	500 to 5000	500 to 5000

Now from value to molecule:

IC50 (B-Raf) [nM]	IC50 (Colo205 tumor cells) [nM]	IC50 (SK-MEL-28 tumor cells) [nM]	Structure (SMILES)
< 100	–	–	CCNc1nc(-c2cc(C)cc(OCC)c2)c(-c2ccnc(Nc3ccc(N4CCN(C)CC4)c(F)c3)n2)s1 [Example 39, 4-{2-(Ethylamino)-4-[3-(ethyloxy)-5-methylphenyl]-1,3-thiazol-5-yl}-N-[3-fluoro-4-(4-methyl-1-piperazinyl)phenyl]-2-pyrimidinamine]
< 100	< 500	< 500	CCNc1nc(-c2ccnc(OC)c2)c(-c2ccnc(Nc3ccc(OCCN4CCCC4)c(Cl)c3)n2)s1 [Example 58, N-(3-Chloro-4-{[2-(1-pyrrolidinyl)ethyl]oxy}phenyl)-4-{2-(ethylamino)-4-[2-(methyloxy)-4-pyridinyl]-1,3-thiazol-5-yl}-2-pyrimidinamine]
< 100	500 to 5000	500 to 5000	CCc1nc(-c2ccc3cc[nH]c3c2)c(-c2ccnc(Nc3ccc(OC4CCN(CCS(C)(=O)=O)CC4)c(F)c3)n2)s1 [Example 68, 4-[2-Ethyl-4-(1H-indol-6-yl)-1,3-thiazol-5-yl]-N-[3-fluoro-4-({1-[2-(methylsulfonyl)ethyl]-4-piperidinyl}oxy)phenyl]-2-pyrimidinamine]
< 100	500 to 5000	500 to 5000	COc1cc(OC)cc(-c2nc(N)oc2-c2ccnc(Nc3ccc(OC4CCN(CCS(C)(=O)=O)CC4)c(F)c3)n2)c1 [Example 75, 4-{2-Amino-4-[3,5-bis(methyloxy)phenyl]-1,3-oxazol-5-yl}-N-[3-fluoro-4-({1-[2-(methylsulfonyl)ethyl]-4-piperidinyl}oxy)phenyl]-2-pyrimidinamine]
< 100	> 5000	> 5000	CCNc1nc(-c2ccnc(O)c2)c(-c2ccnc(Nc3ccc(N4CCS(=O)(=O)CC4)nc3)n2)s1 [Example 79]
< 100	500 to 5000	500 to 5000	CCc1nc(-c2cc(OC)cc(OC)c2)c(-c2ccnc(Nc3ccc(N4CCN(C)CC4)c(F)c3)n2)o1 [Example 85]
< 100	500 to 5000	500 to 5000	CCNc1nc(-c2cc(OC)cc(OC)c2)c(-c2ccnc(Nc3ccc(OC4CCN(CCF)CC4)c(C)c3)n2)o1 [Example 88]
< 100	500 to 5000	500 to 5000	CCNc1nc(-c2cc(OC)cc(OC)c2)c(-c2ccnc(Nc3cc(F)c(OC4CCN(CCF)CC4)c(F)c3)n2)o1 [Example 93]
< 100	< 500	< 500	CCNc1nc(-c2cc(C)cc(OC)c2)c(-c2ccnc(Nc3ccc(N4CCN(C(C)=O)CC4)nc3)n2)o1 [Example 100]
< 100	500 to 5000	500 to 5000	Nc1cccc(-c2nc(N3CCCC3)sc2-c2ccnc(Nc3ccc(NCCN4CCCC4)c(F)c3)n2)c1 [Example 109]
< 100	500 to 5000	500 to 5000	CCNc1nc(-c2cc(C)cc(OC)c2)c(-c2ccnc(Nc3ccc(N4CCN5CCCCC5C4)c(F)c3)n2)s1 (stereo not shown) [Example 114]
< 100	500 to 5000	500 to 5000	CCNc1nc(-c2cc(OC)cc(OC)c2)c(-c2ccnc(Nc3ccc4c(c3)N(C(C)=O)CC4)n2)o1 [Example 122]
< 100	500 to 5000	> 5000	CCNc1nc(-c2cc(OC)cc(OC)c2)c(-c2ccnc(Nc3ccc(CCN4CCOCC4)cc3)n2)o1 [Example 123]
< 100	500 to 5000	500 to 5000	CCNc1nc(-c2cc(C)cc(OC)c2)c(-c2ccnc(Nc3ccc(N4CCN(CCOC)CC4)c(C(=O)O)c3)n2)o1 [Example 130]
